According to patent US20240382446A1, “METHOD FOR IMPROVING FEED INTAKE” (OREXA B.V., priority 2021, published 2024):
Read-outs that look alike come from different tables or passages of the source.

What was measured:
[1] = Weaning of mice with feed comprising various local anesthetics (body weight); format: in vivo
Method: Litters of mice are weaned on day 18 after birth. The siblings are divided over 2 groups (placebo and active) with group sizes of 7-10 siblings.
The pups are offered daily ad libitum food in which a local anesthetic is mixed. Body weight is measured daily.
In TABLES I-IV the body weight is depicted as percentage increase on day 14 in comparison to baseline, as a result of dosing lidocaine (comparative), prilocaine (comparative), bupivacaine (comparative) and benzocaine (according to the invention) to the mice. The baseline is the weight of the mouse at the beginning of the experiment. Placebo and experimental scores are statistically compared by means of student-t tests (* p<0,05; ** p<0,01; *** p<0,001). Doses are indicated on the x-axis and are mg per day for the group of siblings.

[2] = Weaning of piglets with feed comprising various amounts of benzocaine; format: in vivo
Method: Six groups of 21 piglets were treated.
They were fed with controlled amounts of feed (see table V).
Before administration, the food pellets were drenched in water for 30 min and benzocaine (0 g (3×), 5 g, 12,75 g or 17 g, corresponding to a dose of 0, 30, 75 and 100 mg per day per pig, respectively) was added and mixed. The group of piglets receiving feed with 0% benzocaine is referred to as the placebo group.
Amounts of feed consumed were recorded. Piglets were weighed on day 1 (baseline), 4, and 8.

[3] = cited from earlier work
[4] = mice weaned day 18, anesthetic mixed in ad libitum food, day 14 vs baseline
[5] = benzocaine treated pigs vs placebo group

Q: With `CCCCN1CCCCC1C(=O)Nc1c(C)cccc1C` (stereo not drawn) [bupivacaine] as the compound, how does the “growth of the mice (body weight increase) in comparison to placebo” value [1, 4] read?
A: Its value is “either inactive (low dose) or inhibit the growth of the mice”.

Q: Which “growth of the mice (body weight increase) in comparison to placebo” value [1, 4] does the source give for `CCCNC(C)C(=O)Nc1ccccc1C` (stereo not drawn) [prilocaine] here?
A: Its value is “either inactive (low dose) or inhibit the growth of the mice”.

Q: For `CCOC(=O)c1ccc(N)cc1` [benzocaine], which “growth of the mice (body weight increase) in comparison to placebo” value ([1]; 200 mg per day for the group of siblings, day 14) is on record?
A: The value was “inhibits the growth”.

Q: What about the “growth of the mice (body weight increase) in comparison to placebo” value ([1]; low doses 25, 50 and 100 mg per day for the group of siblings, day 14) of the same compound?
A: The value was “increases the growth”.

Q: What about the fouling and diarrhea [2, 5] of the same compound?
A: The fouling and diarrhea was “less fouling and less diarrhea”.

Q: What about the “general condition of the pigs” value [2, 5] of the same compound?
A: The value was “better than that of the placebo group”.

Q: What about the “feed intake relative to placebo” value ([2]; piglets, after day 4, 30 mg and 75 mg benzocaine per day) of the same compound?
A: The value was “increase feed intake”.

Q: And the “growth of lightest vs heaviest 50% of the animals” value ([2]; piglets, day 7, group analysis vs placebo)?
A: The value was “increase of growth in the benzocaine-fed group primarily takes place with the light weight animals”.

Q: And the “feed intake relative to placebo” value ([2]; piglets, first 3 days)?
A: Its value is “initial reduction of the feed intake”.

Q: And the optimal dose ([2]; piglets, per pig)?
A: The optimal dose was 75 mg per day.

Q: What about the “feed conversion (feed needed per weight gain)” value ([2]; piglets, with increasing benzocaine dosing, placebo about 12,8 kg feed per 1 kg) of the same compound?
A: The value was 2,6 kg of feed per 1 kg of meat.

Q: What about the solubility ([3]; dilute acids) of the same compound?
A: The solubility was “more soluble”.

Q: And the solubility ([3]; ethanol, chloroform, and ethyl ether)?
A: The solubility was “very soluble”.

Q: What about the solubility ([3]; water) of the same compound?
A: The solubility was “sparingly soluble”.

Q: Which “growth of the mice (body weight increase) in comparison to placebo” value [1, 4] does the source give for `CCN(CC)CC(=O)Nc1c(C)cccc1C` [Lidocaine, lidocaine] here?
A: The value was “either inactive (low dose) or inhibit the growth of the mice”.
